The target of this experiment is T1, PPARα (Homo sapiens, UniProt Q07869).
T1 construct: expressed in transfected cells; host or cells: Hela cells
T1 sequence (Q07869 1-468): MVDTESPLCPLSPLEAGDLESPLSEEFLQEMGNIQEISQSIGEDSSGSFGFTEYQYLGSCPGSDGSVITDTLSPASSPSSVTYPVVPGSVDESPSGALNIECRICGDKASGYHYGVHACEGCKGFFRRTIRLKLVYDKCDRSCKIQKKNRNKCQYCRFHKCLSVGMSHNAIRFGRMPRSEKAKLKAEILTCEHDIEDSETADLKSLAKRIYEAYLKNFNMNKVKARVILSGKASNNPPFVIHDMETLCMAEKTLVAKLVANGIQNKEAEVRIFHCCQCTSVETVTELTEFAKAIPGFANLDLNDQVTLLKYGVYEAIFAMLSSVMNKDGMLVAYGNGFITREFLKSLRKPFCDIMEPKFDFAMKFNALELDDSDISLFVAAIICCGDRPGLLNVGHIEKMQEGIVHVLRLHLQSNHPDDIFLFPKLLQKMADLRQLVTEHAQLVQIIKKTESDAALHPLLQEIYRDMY
The experiment in a line: Hela cell/luciferase reporter gene method, PPARα agonist activity. It is filed as cell-based. The settings on record: Hela cells, pPPRE3-TK-Luciferase reporter, 24 hrs incubation; read-out: agonistic activity on PPAα (EC50). Here is the method: This example measures the biological activity of a PPAR agonist using the Hela cell/luciferase reporter gene method.
The target plasmids PCMV PPARα (Ampicillin+), PCMV PPARγ (Ampicillin+), PCMV PPARδ (Ampicillin+), and pPPRE3-TK-Luciferase (Ampicillin+) were introduced into DH5a competent cells by heat shock treatment, respectively. After being incubated for 1 hour at 37° C. with shaking (180 rpm), the cells were inoculated on LB agar solid medium containing antibiotic Ampicillin, and invertedly cultured at 37° C. for 12-16 hours. Then the monoclonal colony cultured on the medium was taken and inoculated into LB liquid medium for expanded culture. The desired plasmid was extracted from the resulting bacterial solution with a Plasmid Midi Kit (Qiagen; #12143). The plasmid obtained by centrifugation was suspended in TE buffer, and the plasmid concentration was measured and the mixture was stored at −20° C. Hela cells in the exponential phase were seeded in 6-well plates (8-10^5 cells/well), and after 6-8 hours of culture, the cells were transfected using Lipofectamine® 3000 Transfection Reagent (Invitrogen; #L3000015). A plasmid containing a PPAR binding site (peroxisome proliferator response element, PPRE) and a firefly luciferase gene (pPPRE3-TK-Luciferase) and PPAR expression vector were co-transfected into a Hela cell with a total amount of plasmid DNA of 2.5 ug (the mass ratio of each PPAR expression vector is pPPRE:PPARα=6:1, pPPRE:PPARδ=8:1, and pPPRE:PPARγ=2:1) to construct a drug screening cell model for PPAR agonists. PPAR was binded to the ligand and then binded to the peroxisome proliferator response element (PPRE), thereby initiating downstream firefly luciferase expression and its expression intensity was directly proportional to the degree of PPAR activation. The cells after 24 hours transfection were prepared into a cell suspension with a cell concentration of […] by a complete culture solution, and seeded into a 96-well plate with 100 ul per well. After overnight culture, the medium was changed to a medium containing 1% FBS. 10 mM candidate compound stock (1000×) were 4-fold diluted in DMSO for 8 points, then supplemented with medium containing 1% FBS to a final concentration of 50 uM (5×) by addition of 25 μl of 5× compound diluent to each well in different concentration gradients and incubated under 37° C., 5% CO2 incubator for 24 hrs. The 96-well plate was taken out and 30 μl of Bright-Glo™ Luciferase Assay System (Promega #E2620) was added to each well. The Luciferase luminescence intensity was measured by a SynergyH1 full-function microplate detector. The obtained data was used to calculate EC50 using GraphPad Prism 5.0 software to determine the biological activity of the compound.
The agonistic activity of the compounds synthesized in Examples 1-41 on PPAR is represented by EC50 (see Table 1). EC50 refers to the drug concentration at which the compound has a 50% increase in the agonistic activity of the measured PPAR. The compound numbers in Table 1 correspond to the compound numbers in Examples 1-41.

On to `CNc1ccc(C(=O)/C=C/c2cc(C)c(OC(C)(C)C(=O)O)c(C)c2)c2occc12` [Compound 2, (E)-2-(2,6-dimethyl-4-(3-(4-(methylamino)benzofuran-7-yl)-3-oxoprop-1-en-1-yl)phenoxy)-2-methylpropanoic acid], for which the EC50 was 948 nM. As for `Cc1cc(/C=C/C(=O)c2ccc(SCC(C)C)c3ccoc23)cc(C)c1OC(C)(C)C(=O)O` [Compound 9, (E)-2-(4-(3-(4-(isobutylthio)benzofuran-7-yl)-3-oxoprop-1-en-1-yl)-2,6-dimethylphenoxy)-2-methylpropanoic acid], the figure is 46.8 nM. As to `CSc1ccc(C(=O)/C=C/c2cc(C)c(OC(C)(C)C(=O)O)c(C)c2)c2oc(C)nc12` [Compound 20, (E)-2-(2,6-dimethyl-4-(3-(2-methyl-4-(methylthio)benzo[d]oxazol-7-yl)-3-oxoprop-1-en-1-yl)phenoxy)-2-methylpropanoic acid], the half-maximal effective concentration (EC50) stood at 165 nM. As for `Cc1cc(/C=C/C(=O)c2ccc3scnc3c2)cc(C)c1OC(C)(C)C(=O)O` [Compound 39, (E)-2-(4-(3-(benzo[d]thiazol-5-yl)-3-oxoprop-1-en-1-yl)-2,6-dimethylphenoxy)-2-methylpropanoic acid], the figure is 366 nM; as for `CCOc1ccc2cc(C(=O)/C=C/c3cc(C)c(OC(C)(C)C(=O)O)c(C)c3)oc2c1` [Compound 44, (E)-2-(4-(3-(6-ethoxylbenzofuran-2-yl)-3-oxoprop-1-en-1-yl)-2,6-dimethylphenoxy)-2-methylpropanoic acid], 7.67 nM; as for `Cc1cc(/C=C/C(=O)c2cc3ccccc3o2)cc(C)c1OC(C)(C)C(=O)O` [Compound 49, (E)-2-(4-(3-(benzofuran-2-yl)-3-oxoprop-1-en-1-yl)-2,6-dimethylphenoxy)-2-methylpropanoic acid], 874 nM. With `CSc1ccc2cc(C(=O)/C=C/c3cc(C)c(OCC(=O)O)c(C)c3)oc2c1` [Compound 57, (E)-2-(2,6-dimethyl-4-(3-(6-(methylthio)benzofuran-2-yl)-3-oxoprop-1-en-1-yl)phenoxy)acetic acid], the EC50 is 1180 nM. In the case of `CSc1cccc2cc(C(=O)/C=C/c3cc(C)c(OC(C)(C)C(=O)O)c(C)c3)oc12` [Compound 58, (E)-2-(2,6-dimethyl-4-(3-(7-(methylthio)benzofuran-2-yl)-3-oxoprop-1-en-1-yl)phenoxy)-2-methylpropanoic acid], the EC50 was found to be 352 nM.

For the compound `CSc1ccc2c(C(C)C)c(C(=O)/C=C/c3cc(C)c(OC(C)(C)C(=O)O)c(C)c3)oc2c1` [Compound 64, (E)-2-(4-(3-(3-isopropyl-6-(methylthio)benzofuran-2-yl)-3-oxoprop-1-en-1-yl)-2,6-dimethylphenoxy)-2-methylpropanoic acid], the EC50 is 105 nM. `CSc1ccc2c(C(F)(F)F)c(C(=O)/C=C/c3cc(C)c(OC(C)(C)C(=O)O)c(C)c3)oc2c1` [Compound 73, (E)-2-(2,6-dimethyl-4-(3-(6-(methylthio)-3-(trifluoromethyl)benzofuran-2-yl)-3-oxoprop-1-en-1-yl)phenoxy)-2-methylpropanoic acid]: the EC50 was found to be 3.8 nM. For `CCCSc1ccc2c(C)c(C(=O)/C=C/c3cc(C)c(OC(C)(C)C(=O)O)c(C)c3)oc2c1` [Compound 75, (E)-2-(2,6-dimethyl-4-(3-(3-methyl-6-(propylthio)benzofuran-2-yl)-3-oxoprop-1-en-1-yl)phenoxy)-2-methylpropanoic acid], the EC50 is 121 nM. On to `Cc1cc(/C=C/C(=O)c2oc3cc(SCC(C)C)ccc3c2C)cc(C)c1OC(C)(C)C(=O)O` [Compound 76, (E)-2-(4-(3-(6-(isobutylthio)-3-methylbenzofuran-2-yl)-3-oxoprop-1-en-1-yl)-2,6-dimethylphenoxy)-2-methylpropanoic acid], for which the EC50 amounted to 58.9 nM. Regarding `Cc1cc(/C=C/C(=O)c2oc3cc(SC(C)C)ccc3c2C)cc(C)c1OC(C)(C)C(=O)O` [Compound 77, (E)-2-(4-(3-(6-(isopropylthio)-3-methylbenzofuran-2-yl)-3-oxoprop-1-en-1-yl)-2,6-dimethylphenoxy)-2-methylpropanoic acid], the EC50 was 121 nM.

Consider `CSc1ccc2c(C)c(C(=O)/C=C/c3cc(C)c(OC(C)(C)C(=O)O)c(C)c3)sc2c1` [Compound 82, (E)-2-(2,6-dimethyl-4-(3-(3-methyl-6-(methylthio)benzo[b]thiophen-2-yl)-3-oxoprop-1-en-1-yl)phenoxy)-2-methylpropanoic acid], for which the EC50 turned out to be 70.2 nM. As for `CSc1ccc2cc(C(=O)/C=C/c3cc(C)c(OC(C)(C)C(=O)O)c(C)c3)[nH]c2c1` [Compound 88, (E)-2-(2,6-dimethyl-4-(3-(6-(methylthio)-1H-indol-2-yl)-3-oxoprop-1-en-1-yl)phenoxy)-2 methylpropanoic acid], the figure is 2440 nM. Regarding `CCSc1ccc2c(C)c(C(=O)/C=C/c3cc(C)c(OC(C)(C)C(=O)O)c(C)c3)sc2c1` [Compound 94, (E)-2-(4-(3-(6-(ethylthio)-3-methylbenzo[b]thiophen-2-yl)-3-oxoprop-1-en-1-yl)-2,6-dimethylphenoxy)-2-methylpropanoic acid], the EC50 amounted to 41.9 nM. As for `COc1cc(/C=C/C(=O)c2cc3ccc(SC)cc3o2)cc(OC)c1OC(C)(C)C(=O)O` [Compound 99, (E)-2-(2,6-dimethoxy-4-(3-(6-(methylthio)benzofuran-2-yl)-3-oxoprop-1-en-1-yl)phenoxy)-2-methylpropanoic acid], the figure is 52.1 nM; as for `CSc1ccc2cc(C(=O)/C=C/c3cc(C(C)C)c(OC(C)(C)C(=O)O)c(C(C)C)c3)oc2c1` [Compound 101, (E)-2-(2,6-diisopropyl-4-(3-(6-(methylthio)benzofuran-2-yl)-3-oxoprop-1-en-1-yl)phenoxy)-2-methylpropanoic acid], 477 nM. As for `COc1cc(/C=C/C(=O)c2oc3cc(SC)ccc3c2C)cc(OC)c1OC(C)(C)C(=O)O` [Compound 102, (E)-2-(2,6-dimethoxy-4-(3-(3-methyl-6-(methylthio)benzofuran-2-yl)-3-oxoprop-1-en-1-yl)phenoxy)-2-methylpropanoic acid], the figure is 191 nM.

`CSc1ccc2c(C)c(C(=O)/C=C/c3cc(C(C)C)c(OC(C)(C)C(=O)O)c(C(C)C)c3)oc2c1` [Compound 104, (E)-2-(2,6-diisopropyl-4-(3-(3-methyl-6-(methylthio)benzofuran-2-yl)-3-oxoprop-1-en-1-yl)phenoxy)-2-methylpropanoic acid]: the half-maximal effective concentration (EC50) amounted to 382 nM.

For the origin of these results see patent US11306102B2, “1,3-di-substituted ketene compound and application thereof” (BEBETTER MED INC., priority 2017, dated 2022).
